Source: ChEMBL document CHEMBL4800728, “Data for DCP probe JNJ-54119936” (2021)

Columns and labels:
[1] = target: Sigma intracellular receptor 2 (Homo sapiens, UniProt Q5BJF2); test: GPCRScan assay: inhibition of Sigma 2; design: radioligand conc. used [nm] 5.0, parental cells HEKT
[2] = target: Nuclear receptor ROR-alpha (Homo sapiens) (UniProt P35398); test: ThermoFluor Binding Assay (RORA)
[3] = target: Calcium/calmodulin-dependent protein kinase type 1D (Homo sapiens) (UniProt Q8IU85); test: CaMKIdelta Invitrogen kinase panel; details: Compound concentration 10.0 uM
[4] = target: Calcium/calmodulin-dependent protein kinase type II subunit alpha (Homo sapiens) (UniProt Q9UQM7); test: CaMKIIalpha Invitrogen kinase panel; details: Compound concentration 10.0 uM
[5] = target: Serine/threonine-protein kinase Chk1 (Homo sapiens) (UniProt O14757); test: CHK1 Invitrogen kinase panel; details: Compound concentration 10.0 uM
Chain of Serine/threonine-protein kinase Chk1 (Homo sapiens) (O14757 whole entry): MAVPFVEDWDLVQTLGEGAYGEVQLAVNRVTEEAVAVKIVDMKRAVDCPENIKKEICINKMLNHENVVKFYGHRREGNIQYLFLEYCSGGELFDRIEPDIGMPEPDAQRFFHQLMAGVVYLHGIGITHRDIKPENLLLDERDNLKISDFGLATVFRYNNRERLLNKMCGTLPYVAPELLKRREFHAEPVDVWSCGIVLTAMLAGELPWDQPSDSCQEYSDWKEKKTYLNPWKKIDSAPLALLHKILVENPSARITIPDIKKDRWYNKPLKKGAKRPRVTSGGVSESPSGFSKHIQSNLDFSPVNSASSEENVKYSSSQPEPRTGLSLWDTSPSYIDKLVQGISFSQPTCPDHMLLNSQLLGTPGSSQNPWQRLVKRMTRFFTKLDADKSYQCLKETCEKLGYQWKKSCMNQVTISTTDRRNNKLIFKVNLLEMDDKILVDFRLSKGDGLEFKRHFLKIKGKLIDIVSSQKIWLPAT

[6] = target: Interleukin-1 receptor-associated kinase 4 (Homo sapiens) (UniProt Q9NWZ3); test: IRAK4 Invitrogen kinase panel; details: Compound concentration 10.0 uM
Chain of Interleukin-1 receptor-associated kinase 4 (Homo sapiens) (Q9NWZ3 whole entry): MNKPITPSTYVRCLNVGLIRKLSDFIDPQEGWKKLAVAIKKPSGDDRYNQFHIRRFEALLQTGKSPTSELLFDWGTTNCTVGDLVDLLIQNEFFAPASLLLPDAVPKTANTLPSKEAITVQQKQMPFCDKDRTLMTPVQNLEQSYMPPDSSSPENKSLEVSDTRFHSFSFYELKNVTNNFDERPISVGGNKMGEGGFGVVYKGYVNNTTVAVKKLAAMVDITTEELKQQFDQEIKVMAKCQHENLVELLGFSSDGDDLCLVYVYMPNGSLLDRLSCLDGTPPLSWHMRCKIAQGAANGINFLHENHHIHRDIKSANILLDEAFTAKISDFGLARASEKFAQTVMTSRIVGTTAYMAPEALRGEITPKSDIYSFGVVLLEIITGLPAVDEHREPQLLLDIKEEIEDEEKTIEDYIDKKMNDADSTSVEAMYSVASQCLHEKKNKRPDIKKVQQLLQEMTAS

[7] = target: Serine/threonine-protein kinase PAK 4 (Homo sapiens) (UniProt O96013); test: PAK4 Invitrogen kinase panel; details: Compound concentration 10.0 uM
[8] = target: Protein kinase C alpha type (Homo sapiens) (UniProt P17252); test: PKCalpha Invitrogen kinase panel; details: Compound concentration 10.0 uM
[9] = target: Tyrosine-protein kinase ZAP-70 (Homo sapiens) (UniProt P43403); test: ZAP_70 Invitrogen kinase panel; details: Compound concentration 10.0 uM
Chain of Tyrosine-protein kinase ZAP-70 (Homo sapiens) (P43403 whole entry): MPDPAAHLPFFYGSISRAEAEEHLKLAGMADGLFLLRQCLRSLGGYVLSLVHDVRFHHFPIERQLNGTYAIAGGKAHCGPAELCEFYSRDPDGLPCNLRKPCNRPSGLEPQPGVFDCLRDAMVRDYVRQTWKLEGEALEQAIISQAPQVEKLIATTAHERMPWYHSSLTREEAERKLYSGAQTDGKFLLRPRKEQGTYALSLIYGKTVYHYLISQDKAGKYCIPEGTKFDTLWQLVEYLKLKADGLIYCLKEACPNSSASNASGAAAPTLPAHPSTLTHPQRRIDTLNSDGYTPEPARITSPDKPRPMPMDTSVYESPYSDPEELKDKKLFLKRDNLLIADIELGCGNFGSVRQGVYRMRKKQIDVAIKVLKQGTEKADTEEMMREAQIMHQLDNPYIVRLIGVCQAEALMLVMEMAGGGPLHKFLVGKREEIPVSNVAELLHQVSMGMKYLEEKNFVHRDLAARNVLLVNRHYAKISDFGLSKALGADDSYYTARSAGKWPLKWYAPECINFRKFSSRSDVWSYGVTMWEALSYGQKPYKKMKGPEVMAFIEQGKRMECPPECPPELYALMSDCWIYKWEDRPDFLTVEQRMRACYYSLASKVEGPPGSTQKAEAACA

[10] = target: T1, CAR (nuclear receptor subfamily 1 group I member 3) (Homo sapiens, UniProt Q14994); test: (§1) CAR In-house nuclear receptor screen; details: human; compound concentration 3 uM
T1 sequence (Q14994 whole entry): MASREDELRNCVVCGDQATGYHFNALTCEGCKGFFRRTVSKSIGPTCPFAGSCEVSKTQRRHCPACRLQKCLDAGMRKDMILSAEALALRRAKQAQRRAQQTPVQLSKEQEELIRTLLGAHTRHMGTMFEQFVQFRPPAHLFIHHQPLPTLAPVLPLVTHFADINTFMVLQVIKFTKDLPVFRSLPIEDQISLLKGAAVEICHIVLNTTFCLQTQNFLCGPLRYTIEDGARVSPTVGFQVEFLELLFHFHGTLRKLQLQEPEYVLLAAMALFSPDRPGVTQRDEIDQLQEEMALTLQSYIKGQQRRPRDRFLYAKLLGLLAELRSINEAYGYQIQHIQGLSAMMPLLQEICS

[11] = target: Nuclear receptor subfamily 1 group I member 3 (Homo sapiens, UniProt Q14994); test: as §1
[12] = target: T2, Bile acid receptor (Homo sapiens) (UniProt Q96RI1); test: (§2) FXR In-house nuclear receptor screen; details: Compound concentration 3.0 uM
T2 sequence (whole entry): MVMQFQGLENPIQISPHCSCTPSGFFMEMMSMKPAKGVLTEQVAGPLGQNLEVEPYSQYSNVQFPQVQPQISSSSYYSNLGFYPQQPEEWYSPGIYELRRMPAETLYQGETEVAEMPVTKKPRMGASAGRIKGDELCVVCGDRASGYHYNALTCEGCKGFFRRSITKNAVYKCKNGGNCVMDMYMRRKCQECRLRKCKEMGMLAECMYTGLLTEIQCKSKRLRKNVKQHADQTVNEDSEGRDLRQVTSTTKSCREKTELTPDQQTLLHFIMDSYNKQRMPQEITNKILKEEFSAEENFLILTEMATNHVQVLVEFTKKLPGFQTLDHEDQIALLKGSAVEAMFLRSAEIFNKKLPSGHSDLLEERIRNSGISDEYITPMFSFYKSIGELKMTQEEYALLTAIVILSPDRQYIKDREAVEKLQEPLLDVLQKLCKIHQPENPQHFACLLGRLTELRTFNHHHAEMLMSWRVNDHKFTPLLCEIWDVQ

[13] = target: Bile acid receptor (Homo sapiens, UniProt Q96RI1); test: as §2
[14] = target: D(1A) dopamine receptor (Homo sapiens) (UniProt P21728); test: D1 (h) CEREP screen; details: Compound concentration 10.0 uM
Chain of D(1A) dopamine receptor (Homo sapiens) (P21728 whole entry): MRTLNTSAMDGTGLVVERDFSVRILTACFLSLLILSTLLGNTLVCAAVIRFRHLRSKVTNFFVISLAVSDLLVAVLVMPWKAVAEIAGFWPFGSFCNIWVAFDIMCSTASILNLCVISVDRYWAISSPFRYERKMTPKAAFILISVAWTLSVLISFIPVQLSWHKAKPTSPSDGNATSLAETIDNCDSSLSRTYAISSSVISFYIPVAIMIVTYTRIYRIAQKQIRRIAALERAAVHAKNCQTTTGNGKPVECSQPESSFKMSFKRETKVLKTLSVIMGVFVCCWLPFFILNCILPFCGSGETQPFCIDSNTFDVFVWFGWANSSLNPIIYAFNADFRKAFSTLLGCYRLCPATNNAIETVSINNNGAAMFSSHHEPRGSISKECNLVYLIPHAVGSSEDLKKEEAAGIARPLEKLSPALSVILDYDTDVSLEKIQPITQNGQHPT

[15] = target: C-C chemokine receptor type 1 (Homo sapiens) (UniProt P32246); test: CCR1 (h) CEREP screen; details: Compound concentration 1.0 uM
[16] = target: Kappa-type opioid receptor (Homo sapiens) (UniProt P41145); test: Kappa (KOP) (h) CEREP screen; details: Compound concentration 10.0 uM
Chain of Kappa-type opioid receptor (Homo sapiens) (P41145 whole entry): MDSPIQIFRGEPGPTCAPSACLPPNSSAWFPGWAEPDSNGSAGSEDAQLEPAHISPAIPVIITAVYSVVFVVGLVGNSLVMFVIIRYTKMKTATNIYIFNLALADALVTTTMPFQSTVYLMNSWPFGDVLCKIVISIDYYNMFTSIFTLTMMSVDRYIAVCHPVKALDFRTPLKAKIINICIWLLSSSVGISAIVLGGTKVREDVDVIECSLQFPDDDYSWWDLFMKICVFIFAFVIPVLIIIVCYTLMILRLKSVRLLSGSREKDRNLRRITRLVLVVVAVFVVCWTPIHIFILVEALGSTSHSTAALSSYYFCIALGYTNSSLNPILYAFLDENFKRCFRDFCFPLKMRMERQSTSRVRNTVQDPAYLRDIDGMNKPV

[17] = target: GABA-A receptor; anion channel (Homo sapiens) (UniProt P14867+P47870+P18507+P28472+P48169+Q99928+Q9UN88+P34903+O00591+O14764+Q8N1C3+P18505+P78334+P47869+P31644+Q16445); test: Cl- channel CEREP screen; assay type: protein-complex assay
[18] = target: Sodium-dependent dopamine transporter (Homo sapiens) (UniProt Q01959); test: dopamine transporter (h) CEREP screen
Chain of Sodium-dependent dopamine transporter (Homo sapiens) (Q01959 whole entry): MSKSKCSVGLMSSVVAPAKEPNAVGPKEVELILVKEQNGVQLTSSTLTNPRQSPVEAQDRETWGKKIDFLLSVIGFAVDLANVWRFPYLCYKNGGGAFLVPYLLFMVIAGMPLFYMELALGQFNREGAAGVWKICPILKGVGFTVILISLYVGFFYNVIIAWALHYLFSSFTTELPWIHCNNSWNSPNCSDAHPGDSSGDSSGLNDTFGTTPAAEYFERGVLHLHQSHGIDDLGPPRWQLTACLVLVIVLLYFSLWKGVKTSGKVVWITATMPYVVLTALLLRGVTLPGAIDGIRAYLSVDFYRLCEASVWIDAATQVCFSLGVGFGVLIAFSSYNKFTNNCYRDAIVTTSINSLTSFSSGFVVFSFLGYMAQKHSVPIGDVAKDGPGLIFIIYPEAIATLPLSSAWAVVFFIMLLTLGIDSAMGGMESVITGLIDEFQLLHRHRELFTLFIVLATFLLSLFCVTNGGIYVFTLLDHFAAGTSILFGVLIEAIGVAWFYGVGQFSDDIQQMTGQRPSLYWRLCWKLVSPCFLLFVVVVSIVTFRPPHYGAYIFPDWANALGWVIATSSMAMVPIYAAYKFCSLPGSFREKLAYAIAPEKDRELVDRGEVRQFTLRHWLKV

[19] = target: Thyroid hormone receptor alpha (Homo sapiens) (UniProt P10827); test: TRalpha Indigo Bioscience nuclear receptor screen; details: Compound concentration 0.3 uM
[20] = target: T3, Oxysterols receptor LXR-beta (Homo sapiens) (UniProt P55055); test: LXRbeta Indigo Bioscience nuclear receptor screen
T3 sequence (whole entry): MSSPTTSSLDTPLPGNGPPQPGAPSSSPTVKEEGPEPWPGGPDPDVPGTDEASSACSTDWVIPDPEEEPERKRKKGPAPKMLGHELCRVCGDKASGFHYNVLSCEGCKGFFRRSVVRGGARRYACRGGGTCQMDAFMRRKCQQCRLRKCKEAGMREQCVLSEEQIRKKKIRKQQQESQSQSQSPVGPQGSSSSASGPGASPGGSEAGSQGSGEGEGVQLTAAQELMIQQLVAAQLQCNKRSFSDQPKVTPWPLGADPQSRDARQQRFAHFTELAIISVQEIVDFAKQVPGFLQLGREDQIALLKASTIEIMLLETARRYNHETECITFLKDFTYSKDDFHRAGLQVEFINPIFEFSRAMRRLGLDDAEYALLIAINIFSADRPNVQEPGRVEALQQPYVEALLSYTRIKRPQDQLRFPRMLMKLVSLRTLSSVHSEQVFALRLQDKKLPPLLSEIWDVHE

[21] = target: 5-hydroxytryptamine receptor 3A (Homo sapiens) (UniProt P46098); details: Compound concentration 10.0 uM
[22] = target: 5-hydroxytryptamine receptor 6 (Homo sapiens) (UniProt P50406); details: Compound concentration 10.0 uM
Chain of 5-hydroxytryptamine receptor 6 (Homo sapiens) (P50406 whole entry): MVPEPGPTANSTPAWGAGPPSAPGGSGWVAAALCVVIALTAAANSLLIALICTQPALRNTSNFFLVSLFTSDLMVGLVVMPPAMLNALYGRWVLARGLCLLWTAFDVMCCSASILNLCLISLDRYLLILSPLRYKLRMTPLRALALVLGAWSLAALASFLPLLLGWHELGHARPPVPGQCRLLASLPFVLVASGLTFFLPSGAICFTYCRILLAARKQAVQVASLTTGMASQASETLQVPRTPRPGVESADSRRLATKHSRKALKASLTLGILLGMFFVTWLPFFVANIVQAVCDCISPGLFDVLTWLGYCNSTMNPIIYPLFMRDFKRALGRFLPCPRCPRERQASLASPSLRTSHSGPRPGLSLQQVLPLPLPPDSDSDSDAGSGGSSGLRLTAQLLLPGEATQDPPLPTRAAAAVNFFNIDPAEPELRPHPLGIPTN

[23] = target: Mu-type opioid receptor (Homo sapiens) (UniProt P35372); details: Compound concentration 10.0 uM
Chain of Mu-type opioid receptor (Homo sapiens) (P35372 whole entry): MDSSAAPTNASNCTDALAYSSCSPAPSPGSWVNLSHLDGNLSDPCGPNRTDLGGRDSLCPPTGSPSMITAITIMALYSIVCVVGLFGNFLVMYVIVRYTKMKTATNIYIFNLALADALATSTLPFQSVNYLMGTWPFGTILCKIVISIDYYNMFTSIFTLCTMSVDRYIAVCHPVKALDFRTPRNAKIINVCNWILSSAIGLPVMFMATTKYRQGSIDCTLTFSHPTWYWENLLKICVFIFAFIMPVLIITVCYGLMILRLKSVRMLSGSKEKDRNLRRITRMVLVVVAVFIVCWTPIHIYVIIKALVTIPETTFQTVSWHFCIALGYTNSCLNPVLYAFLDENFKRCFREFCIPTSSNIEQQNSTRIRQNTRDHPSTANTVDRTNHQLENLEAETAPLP

[24] = target: Alpha-2C adrenergic receptor (Homo sapiens) (UniProt P18825); details: Compound concentration 10.0 uM
[25] = target: Muscarinic acetylcholine receptor M3 (Homo sapiens) (UniProt P20309); details: Compound concentration 10.0 uM
[26] = target: Beta-3 adrenergic receptor (Homo sapiens) (UniProt P13945); details: Compound concentration 10.0 uM
Chain of Beta-3 adrenergic receptor (Homo sapiens) (P13945 whole entry, looked up): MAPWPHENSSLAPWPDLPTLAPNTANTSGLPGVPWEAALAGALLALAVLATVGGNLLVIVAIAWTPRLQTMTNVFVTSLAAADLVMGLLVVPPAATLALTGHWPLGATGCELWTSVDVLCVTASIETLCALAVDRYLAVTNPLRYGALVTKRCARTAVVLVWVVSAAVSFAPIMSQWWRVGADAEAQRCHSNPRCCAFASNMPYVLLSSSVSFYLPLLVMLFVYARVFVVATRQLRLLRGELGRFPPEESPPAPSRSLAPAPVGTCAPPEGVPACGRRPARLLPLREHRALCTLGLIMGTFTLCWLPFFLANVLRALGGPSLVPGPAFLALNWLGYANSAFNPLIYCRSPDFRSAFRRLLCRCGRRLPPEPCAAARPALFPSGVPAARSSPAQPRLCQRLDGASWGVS

[27] = target: Alpha-1D adrenergic receptor (Homo sapiens) (UniProt P25100); details: Compound concentration 10.0 uM

Chain of Sigma intracellular receptor 2 (Q5BJF2 whole entry): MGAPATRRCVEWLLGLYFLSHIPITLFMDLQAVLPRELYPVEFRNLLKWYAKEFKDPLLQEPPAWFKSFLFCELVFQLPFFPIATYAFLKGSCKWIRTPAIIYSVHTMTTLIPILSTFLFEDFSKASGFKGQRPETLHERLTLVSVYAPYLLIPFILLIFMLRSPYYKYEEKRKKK
Chain of Nuclear receptor ROR-alpha (Homo sapiens) (P35398 whole entry): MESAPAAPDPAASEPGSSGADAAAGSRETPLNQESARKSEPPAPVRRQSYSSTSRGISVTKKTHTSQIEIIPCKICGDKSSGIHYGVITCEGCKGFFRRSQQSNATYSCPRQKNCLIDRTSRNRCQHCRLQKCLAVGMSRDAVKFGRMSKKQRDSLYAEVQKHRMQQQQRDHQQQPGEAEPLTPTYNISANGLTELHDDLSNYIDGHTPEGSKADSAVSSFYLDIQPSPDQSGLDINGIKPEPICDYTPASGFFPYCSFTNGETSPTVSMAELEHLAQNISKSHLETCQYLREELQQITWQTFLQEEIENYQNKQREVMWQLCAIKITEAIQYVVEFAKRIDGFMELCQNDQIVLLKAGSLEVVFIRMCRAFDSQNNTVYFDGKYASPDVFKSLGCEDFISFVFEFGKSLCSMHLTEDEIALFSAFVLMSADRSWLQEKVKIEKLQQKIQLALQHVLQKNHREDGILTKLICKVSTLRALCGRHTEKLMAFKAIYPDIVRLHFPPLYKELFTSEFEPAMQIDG

COc1nc2ccc([C@@](O)(c3ccccc3)C3CCN(C(C)=O)CC3)cc2c(Cl)c1Cc1ccc(-n2cccn2)cc1 [JNJ-54119936]
0.603 µM: Ki ([1]; read-out: pKi (converted))
0.637 µM: Ki ([1]; read-out: Ki)
inactive: qKD [2] > 75 µM | inhibition [3] 7% | inhibition [4] 14% | inhibition [5] 2% | inhibition [6] 6% | inhibition [7] 4% | inhibition [8] 4% | inhibition [9] 5% | inhibition [12] 33% | inhibition [14] 16% | inhibition [15] 17% | inhibition [16] 12% | inhibition ([17]; Compound concentration 1.0 uM) 21% | inhibition ([17]; Compound concentration 10.0 uM) 44% | inhibition ([18]; Compound concentration 1.0 uM) 18% | inhibition ([18]; Compound concentration 10.0 uM) 30% | inhibition [19] -5.63% | inhibition ([20]; Compound concentration 0.3 uM) 5.39% | inhibition ([20]; Compound concentration 1.0 uM) 8.98% | inhibition ([20]; Compound concentration 3.0 uM) 11% | inhibition [21] 9.28% | inhibition [22] 8.8% | inhibition [23] 25.6% | inhibition [24] 39.8% | inhibition [25] 0.49% | inhibition [26] 39.4% | inhibition [27] 6.64%
8.4 µM: IC50 [11]
31.2% (not active): inhibition at 3 µM [10]
5.8 µM: IC50 [13]
